Measured values as given in EPA's ToxRefDB 2.

Assays:
rat [1] = settings: Subchronic oral toxicity in rodents, sprague dawley, Gavage/Intubation, dose end: 93 day, group: systemic
dog [2] = settings: Subchronic oral toxicity in nonrodent, beagle, Gavage/Intubation, dose end: 94 day, group: systemic
rat [3] = settings: Sub-acute repeat dose toxicity, sprague dawley, Oral, Gavage/Intubation, dose end: 15 day, group: systemic
rabbit [4] = settings: Prenatal developmental toxicity study, Oral, Gavage/Intubation, dose end: 20 GD, group: maternal
dog [5] = settings: Chronic toxicity, beagle, Oral, Gavage/Intubation, dose end: 272 day, group: systemic
rat [6] = settings: Sub-acute repeat dose toxicity; Oral; Gavage/Intubation; dose end: 36 day; group: systemic; systemic / in life observation / body weight / body weight + systemic / in life observation / food consumption / food consumption
rabbit [7] = settings: Sub-acute repeat dose toxicity, new zealand white, Oral, Gavage/Intubation, dose end: 5 day, group: systemic
rabbit [8] = settings: Prenatal developmental toxicity study, Oral, Gavage/Intubation, dose end: 20 GD, group: maternal; remark: listed apart in the source
rat [9] = settings: Fertility (Segment I), Oral, Gavage/Intubation, dose end: 1 generation
rat [10] = settings: Prenatal developmental toxicity study, Oral, Gavage/Intubation, dose end: 18 GD
rat [11] = settings: Prenatal developmental toxicity study, Oral, Gavage/Intubation, dose end: 21 GD
dog [12] = settings: Sub-acute repeat dose toxicity, beagle, Oral, Gavage/Intubation, dose end: 22 day, group: systemic
rat [13] = settings: Sub-acute repeat dose toxicity, sprague dawley, Oral, Gavage/Intubation, dose end: 15 day, group: systemic; remark: listed apart in the source
rat [14] = settings: Sub-acute repeat dose toxicity; sprague dawley; Oral; Gavage/Intubation; dose end: 5 day; group: systemic; systemic / clinical chemistry / aspartate aminotransferase (ast/sgot) / aspartate aminotransferase (ast/sgot) + systemic / in life …
rat [15] = settings: Chronic toxicity; sprague dawley; Oral; Gavage/Intubation; dose end: 182 day; group: systemic; systemic / clinical chemistry / [other] / [other] + systemic / clinical chemistry / cholesterol / cholesterol + systemic / clinical …
dog [16] = settings: Subchronic oral toxicity in nonrodent, beagle, Capsule, dose end: 13 week, group: systemic
rat [17] = settings: Subchronic oral toxicity in rodents, fischer, Feed, dose end: 13 week, group: systemic
rabbit [18] = settings: Prenatal developmental toxicity study; new zealand white; Oral; Gavage/Intubation; dose end: 19 GD; group: maternal; systemic / in life observation / body weight / body weight gain + systemic / in life observation / clinical signs / altered breathing rate…
dog [19] = settings: Chronic toxicity; beagle; Oral; Capsule; dose end: 52 week; group: systemic; systemic / hematology / mean corpuscular hemoglobin (mch) / mean corpuscular hemoglobin (mch) + systemic / hematology / mean corpuscular …
mouse = settings: Carcinogenicity, cd1, Oral, Feed, dose end: 80 week, group: systemic
rat [20] = settings: Multigenerational reproductive toxicity study, sprague dawley, Oral, Feed, dose end: 2 generation; for LEL / NEL: systemic / organ weight / liver / relative to body weight
rat [21] = settings: Combined chronic toxicity/carcinogenicity, fischer, Oral, Feed, dose end: 104 week, group: systemic
rat [22] = settings: Prenatal developmental toxicity study, sprague dawley, Oral, Gavage/Intubation, dose end: 15 GD
[23] = systemic / in life observation / body weight / body weight gain + systemic / clinical chemistry / [other] / [other] + systemic / clinical …
[24] = systemic / organ weight / liver / absolute
[25] = systemic / organ weight / liver / absolute + systemic / clinical chemistry / [other] / [other] + systemic / clinical chemistry / alkaline …
[26] = systemic / clinical chemistry / [other] / [other] + systemic / clinical chemistry / cytochrome p450, nos / cytochrome p450, nos + systemic…
[27] = systemic / in life observation / body weight / body weight + systemic / in life observation / clinical signs / alopecia + systemic / in life…
[28] = systemic / in life observation / clinical signs / altered breathing rate + systemic / in life observation / clinical signs / convulsions + …
[29] = systemic / clinical chemistry / alkaline phosphatase (alp/alk) / alkaline phosphatase (alp/alk) + systemic / in life observation / clinical …
[30] = systemic / in life observation / body weight / body weight + systemic / in life observation / clinical signs / altered breathing rate + …
[31] = systemic / in life observation / mortality / mortality + systemic / in life observation / body weight / body weight gain + systemic / in …
[32] = group: maternal, reproductive / reproductive performance / estrous cycle / corpora lutea + reproductive / reproductive performance / implantations / …
[33] = group: parental, systemic / in life observation / body weight / body weight + systemic / in life observation / body weight / body weight gain + systemic / in…
[34] = group: developmental, systemic / in life observation / body weight / fetal weight
[35] = group: maternal, systemic / in life observation / body weight / body weight gain + systemic / in life observation / clinical signs / alopecia + systemic / in…
[36] = group: maternal, systemic / in life observation / body weight / body weight gain + systemic / in life observation / food consumption / food consumption + …
[37] = systemic / in life observation / body weight / body weight gain + systemic / in life observation / food consumption / food consumption + …
[38] = systemic / clinical chemistry / glucose / glucose + systemic / clinical chemistry / alanine aminotransferase (alt/sgpt) / alanine …
[39] = systemic / clinical chemistry / cholesterol / cholesterol + systemic / hematology / hematocrit (hct) / hematocrit (hct) + systemic / …
[40] = systemic / hematology / hematocrit (hct) / hematocrit (hct)
[41] = group: parental, systemic / in life observation / body weight / body weight gain + systemic / organ weight / liver / relative to body weight + systemic / …
[42] = systemic / clinical chemistry / protein / protein
[43] = group: developmental, developmental / developmental malformation / bone / full supernumerary
[44] = group: developmental, developmental / developmental malformation / bone / full supernumerary + developmental / developmental malformation / bone / incomplete …
[45] = group: maternal, systemic / organ weight / placenta / nos
[46] = group: maternal, systemic / organ weight / placenta / nos + systemic / in life observation / body weight / body weight + systemic / in life observation / …

COc1ccc(OC(F)(F)F)cc1CN[C@H]1CCCN[C@H]1c1ccccc1
LEL (rat [1]; systemic / clinical chemistry / 5' nucleotidase / 5' nucleotidase + systemic / clinical chemistry / aspartate aminotransferase (ast/sgot) / …): 30 mg/kg/day | LOAEL (rat [1]; [23]): > 150 mg/kg/day | NOAEL (rat [1]; [23]): ≥ 150 mg/kg/day | LEL (dog [2]; [24]): 1 mg/kg/day | NEL (dog [2]; [24]): < 1 mg/kg/day | LOAEL (dog [2]; [25]): > 20 mg/kg/day | NOAEL (dog [2]; [25]): ≥ 20 mg/kg/day | LEL (rat [3]; [26]): 50 mg/kg/day | NEL (rat [3]; [26]): 10 mg/kg/day | LOAEL (rat [3]; [27]): > 400 mg/kg/day | NOAEL (rat [3]; [27]): ≥ 400 mg/kg/day | LOAEL (rabbit [4]; [28]): > 75 mg/kg/day | NEL (rabbit [4]; [28]): 25 mg/kg/day | NOAEL (rabbit [4]; [28]): ≥ 75 mg/kg/day | LEL (rabbit [4]; systemic / in life observation / food consumption / food consumption): 50 mg/kg/day | LOAEL (dog [5]; [29]): > 20 mg/kg/day | NOAEL (dog [5]; [29]): ≥ 20 mg/kg/day | LEL (dog [5]; systemic / in life observation / clinical signs / salivation): 6 mg/kg/day | LEL (rat [6]): 50 mg/kg/day | LOAEL (rat [6]): > 50 mg/kg/day | NEL (rat [6]): 20 mg/kg/day | NOAEL (rat [6]): ≥ 50 mg/kg/day | LOAEL (rabbit [7]; [30]): > 200 mg/kg/day | NEL (rabbit [7]; [30]): 20 mg/kg/day | NOAEL (rabbit [7]; [30]): ≥ 200 mg/kg/day | LEL (rabbit [7]; systemic / in life observation / body weight / body weight + systemic / in life observation / food consumption / food consumption): 100 mg/kg/day | LEL (rabbit [8]; systemic / in life observation / mortality / mortality): 15 mg/kg/day | LOAEL (rabbit [8]; [31]): > 50 mg/kg/day | NEL (rabbit [8]; [31]): 5 mg/kg/day | NOAEL (rabbit [8]; [31]): ≥ 50 mg/kg/day | LEL (rat [9]; [32]): 150 mg/kg/day | LOAEL (rat [9]; [32]): > 150 mg/kg/day | NEL (rat [9]; [32]): 50 mg/kg/day | NOAEL (rat [9]; [32]): ≥ 150 mg/kg/day | LOAEL (rat [9]; [33]): > 150 mg/kg/day | NEL (rat [9]; [33]): 5 mg/kg/day | NOAEL (rat [9]; [33]): ≥ 150 mg/kg/day | LEL (rat [9]; group: parental, systemic / in life observation / body weight / body weight gain + systemic / in life observation / clinical signs / alopecia + systemic / in…): 50 mg/kg/day | LEL (rat [10]; [34]): 150 mg/kg/day | LOAEL (rat [10]; [34]): > 150 mg/kg/day | NOAEL (rat [10]; [34]): ≥ 150 mg/kg/day | LEL (rat [10]; [35]): 75 mg/kg/day | LOAEL (rat [10]; [35]): > 150 mg/kg/day | NEL (rat [10]; [35]): 15 mg/kg/day | NOAEL (rat [10]; [35]): ≥ 150 mg/kg/day | LEL (rat [11]; [34]): 100 mg/kg/day | LOAEL (rat [11]; [34]): > 100 mg/kg/day | NOAEL (rat [11]; [34]): ≥ 100 mg/kg/day | LEL (rat [11]; [36]): 30 mg/kg/day | LOAEL (rat [11]; [36]): > 100 mg/kg/day | NEL (rat [11]; [36]): 10 mg/kg/day | NOAEL (rat [11]; [36]): ≥ 100 mg/kg/day | LEL (dog [12]; systemic / clinical chemistry / alkaline phosphatase (alp/alk) / alkaline phosphatase (alp/alk)): 10 mg/kg/day | LOAEL (dog [12]; [29]): > 30 mg/kg/day | NOAEL (dog [12]; [29]): ≥ 30 mg/kg/day | LEL (rat [13]; [26]): 100 mg/kg/day | NEL (rat [13]; [26]): < 100 mg/kg/day | LOAEL (rat [13]; [37]): > 200 mg/kg/day | NOAEL (rat [13]; [37]): ≥ 200 mg/kg/day | LEL (rat [14]): 400 mg/kg/day | LOAEL (rat [14]): > 1000 mg/kg/day | NEL (rat [14]): < 400 mg/kg/day | NOAEL (rat [14]): ≥ 1000 mg/kg/day | LEL (rat [15]): 30 mg/kg/day | LOAEL (rat [15]): > 100 mg/kg/day | NEL (rat [15]): 5 mg/kg/day | NOAEL (rat [15]): ≥ 100 mg/kg/day

Clc1ccc(C2(Cn3cncn3)CC(Br)CO2)c(Cl)c1 (stereo unspecified) [Bromuconazole]
LOAEL (dog [16]; systemic / clinical chemistry / glucose / glucose): 25 mg/kg/day | NEL (dog [16]; [38]): 2.5 mg/kg/day | NOAEL (dog [16]; [38]): 2.5 mg/kg/day | LEL (dog [16]; systemic / clinical chemistry / glucose / glucose + systemic / organ weight / liver / relative to body weight): 25 mg/kg/day | LOAEL (rat [17]; [39]): 68.1 mg/kg/day | NOAEL (rat [17]; [39]): 13.8 mg/kg/day | LEL (rat [17]; [40]): 2.72 mg/kg/day | NEL (rat [17]; [40]): < 2.72 mg/kg/day | LEL (rabbit [18]): 50 mg/kg/day | LOAEL (rabbit [18]): 50 mg/kg/day | NEL (rabbit [18]): 12.5 mg/kg/day | NOAEL (rabbit [18]): 12.5 mg/kg/day | LEL (dog [19]): 25 mg/kg/day | LOAEL (dog [19]): 25 mg/kg/day | NEL (dog [19]): 2.5 mg/kg/day | NOAEL (dog [19]): 2.5 mg/kg/day | LOAEL (mouse; systemic / in life observation / body weight / body weight gain): 113 mg/kg/day | NOAEL (mouse; systemic / in life observation / body weight / body weight gain + systemic / pathology microscopic / liver / adenoma + systemic / organ …): 10.8 mg/kg/day | NEL (mouse; systemic / organ weight / liver / absolute + systemic / organ weight / liver / relative to body weight + systemic / organ weight / adrenal …): 370 mg/kg/day | LOAEL (rat [20]; group: offspring, systemic / in life observation / body weight / offspring (pup) weight gain): 141 mg/kg/day | NOAEL (rat [20]; group: offspring, systemic / in life observation / body weight / offspring (pup) weight gain + developmental / offspring survival late / viability index / …): 13.8 mg/kg/day | LEL (rat [20]; group: offspring): 1.6 mg/kg/day | NEL (rat [20]; group: offspring): < 1.6 mg/kg/day | LOAEL (rat [20]; [41]): 141 mg/kg/day | NOAEL (rat [20]; [41]): 13.8 mg/kg/day | LEL (rat [20]; group: parental): 1.3 mg/kg/day | NEL (rat [20]; group: parental): < 1.3 mg/kg/day | LEL (rat [21]; [42]): 0.88 mg/kg/day | NEL (rat [21]; [42]): < 0.88 mg/kg/day | LOAEL (rat [21]; systemic / pathology microscopic / liver / vacuolization): 8.27 mg/kg/day | NOAEL (rat [21]; systemic / pathology microscopic / liver / vacuolization + systemic / in life observation / body weight / body weight + systemic / in life …): 1.09 mg/kg/day | LEL (rat [22]; [43]): 70 mg/kg/day | LOAEL (rat [22]; [43]): 70 mg/kg/day | NEL (rat [22]; [44]): 10 mg/kg/day | NOAEL (rat [22]; [44]): 10 mg/kg/day | LEL (rat [22]; [45]): 70 mg/kg/day | LOAEL (rat [22]; [45]): 70 mg/kg/day | NEL (rat [22]; [46]): 10 mg/kg/day | NOAEL (rat [22]; [46]): 10 mg/kg/day
